Test results: patent US20170137419A1, “DERIVATIVES OF 2H-PYRAZOLO[4,3-C]QUINOLIN-3(5H)-ONE AND USE THEREOF” (UNIVERSITE DU DROIT ET DE LA SANTE LILLE 2, priority 2014, published 2017)
Read-outs that look alike come from different tables or passages of the source. Blank lines part the entries; values can stand above or below the compound they belong to.

Legend:
hCB2 [1] = biological target: T1, hCB2 (Homo sapiens, UniProt P34972); test: Binding affinity hCB2, [3H]-CP-55,940 displacement
Protocol: (§1) Measurement of Affinity. The binding studies were carried out in accordance with the protocols described by El Bakali et al. (El Bakali, J.; Muccioli, G. G.; Renault, N.; Pradal, D.; Body-Malapel, M.; Djouina, M.; Hamtiaux, L.; Andrzejak, V.; Desreumaux, P.; Chavatte, P.; Lambert, D. M.; Millet, R. 4-Oxo-1,4-Dihydropyridines as Selective CB2 Cannabinoid Receptor Ligands: Structural Insights into the Design of a Novel Inverse Agonist Series. J. Med. Chem. 2010, 53, 7918-7931) but applying a small modification. Briefly, the [3H]-CP-55,940 (0.5 nM) chosen as a radioligand for the CB1 and CB2 human receptors is added to 6 μg of membranes resuspended in 550 μl (final volume) of buffer (20 mM Hepes, 5 mM MgCl2, 1 mM EDTA, 0.3% bovine serum albumin, pH 7.4). After 1 hour at 30° C., incubation is stopped and the solution is quickly filtered on Harvester, through the “Unifilter 96 (PerkinElmer)” filter previously saturated with bonding buffer (20 mM Hepes, 5 mM MgCl2, 1 mM EDTA, 0.3% bovine serum albumin, pH 7.4), and then washed 20 times with iced binding buffer without serum albumin. The radioactivity of the filters was measured using the “TopCount NXT Microplate Scintillation Counter (PerkinElmer)” after addition of 60 μl of “MicroScint 40 (PerkinElmer)” scintillation liquid. The experiments were carried out in triplicate. The non-specific binding was determined in the presence of 5 μM (R)-(+)-WIN 55,212-2 (Sigma).
(§2) Analysis of the Data. The values of Ki and EC50 were determined by non-linear regression carried out by the “GraphPad Prism 5.0” program (GraphPad Software, San Diego). The statistical analysis of the results of the [^35S]-GTPγS dosing was carried out by means of the “Student” test.

hCB1 = hCB1 (Homo sapiens, UniProt P21554); test: Binding affinity hCB1, [3H]-CP-55,940 displacement
Protocol: as §1, §2

hCB2 [2] = biological target: T1, hCB2; test: [35S]-GTPγS functional activity (hCB2); assay type: biochemical
Protocol: Dosing of [^355]-GTPγS. The studies were carried out at 30° C. in tubes containing 10 μg of protein in 0.5 ml (final volume) of buffer (20 mM Hepes, 10 mM MgCl2, 100 mM NaCl, 0.1% bovine serum albumin, pH 7.4) supplemented with 30 μm of GDP. The dosing was initiated by the addition of [^35S]-GTPγS (0.1 nM, final concentration). After 1 hour at 30° C., the incubation was stopped and the solution was quickly filtered on the “Unifilter-96 GF/B” filter and washed 20 times with iced bonding buffer. The radioactivity on the filters was counted as mentioned above. The non-specific binding was measured in the presence of 100 μm of Gpp(NH)p. The results were expressed in EC50 (nM) and Emax (%).
as §2

colitis caused by TNBS = test: Model of colitis caused by TNBS in mice; assay type: in vivo, C57B16 male mice
Protocol: C57B16 male mice (n=10 per group) have free access to food and water. To cause colitis, the mice are anaesthetised for 90-120 minutes by subcutaneous administration of zylasine-ketamine (50 mg/kg) diluted in physiological serum, then receive an intrarectal administration of TNBS (40 μl, 150 mg/kg) diluted in a 1:1 mixture of 0.9% NaCl and 100% ethanol. The novel CB2 agonists are diluted in 0.5% carboxymethyl cellulose (Sigma-Aldrich, Saint Quentin Fallavier, France) for a dose administered by gavage of 0.1, 1 and 10 mg/kg body weight/day. JWH133, a known CB2 agonist (Kimball E S, Schneider C R, Wallace N H, Hornby P J. Agonists of cannabinoid receptor 1 and 2 inhibit experimental colitis induced by oil of mustard and by dextran sulfate soldium. Am. J. Physiol. Gastrointest. Liver Physiol., 2006, 291, G364-71.), is administered intraperitoneally at a dose of 0.1 mg/kg body weight/day. The animals are euthanised 5 days after the administration of TNBS. The intensity of the colitis at macroscopic and histological levels is assessed in each colon blind by 2 investigators. The scale of the macroscopic scores of the lesions ranges from 0 to 10 according to characteristics reflecting inflammation, such as hyperaemia, thickening of the intestinal wall and the extent of ulcerations. A localised colon biopsy precisely 2 cm above the anal channel is used for histological analysis following a May-Grunwald Giemsa colouring. The histological score varies between 0 and 6 and takes into account the degree of inflammatory infiltrate, the presence of erosion, ulcerations and necrosis of the mucosa, and the level of extension of the lesions in depth and on the surface reached. Two other colon biopsies are frozen and used to analyse the levels of mRNA of inflammatory cytokines by PCR in real time. The total mRNAs of the colon are extracted using the Nucleospin RNAII kit (Macherey Nagel, Hoerdt, France) and then retrotranscripts using the High-Capacity cDNA Reverse Transcription Kit (Applied Biosystems), Foster City, USA). The real-time PCR is carried out with SYBR Green (Applied Biosystems, Foster City, USA). The specific primers for TNF-alpha (TNF-alpha F and TNF-alpha R), IL-1 beta (IL1-beta F and IL1-beta R) and POLR2A (POLR2A F and POLR2A R) as reference gene were chosen using the Primer Express 2 software (Applied Biosystems, Foster City, USA). For the graphical representation of the quantitative PCR data, the values of Ct obtained for the target genes are compared with those of the reference gene, using the ΔΔCt method, that is to say: ΔΔCt=(Ct of the target gene−Ct of the reference gene) treated mouse−(Ct of the target gene−Ct of the reference gene) non-treated mouse, and the final data are derived from 2-ΔΔCt.
Compound 26 was evaluated in mice in a model of colitis caused by TNBS in accordance with a described protocol (Desreumaux, P.; Dubuquoy, L.; Nutten, S.; Peuchmaur, M.; Englaro, W.; Schoonjans, K.; Derijard, B.; Desvergne, B.; Wahli, W.; Chambon, P.; Leibowitz, M. D.; Colombel, J. F.; Auwerx, J. Attenuation of Colon Inflammation Through Activators of the Retinoid X Receptor (RXR)/Peroxisome Proliferator-Activated Receptor Gamma (PPARgamma) Heterodimer. A Basis for New Therapeutic Strtegies. J. Exp. Med. 2001, 193, 827-838). Thus compound 26 was administered orally in carboxymethyl cellulose (CMC) each day at a dose of 0.1, 1 and 10 mg/kg for seven days, and two days before the induction of colitis. A control with an administration of CMC alone was effected.

[3] = Table 2, radioligand [3H]-CP-55,940 0.5 nM, read-out: Binding affinity hCB2 Ki
[4] = Table 2, radioligand [3H]-CP-55,940 0.5 nM, read-out: Binding affinity hCB1 Ki
[5] = Table 3, radioligand [3H]-CP-55,940 0.5 nM, read-out: Binding affinity hCB1 Ki

Chain of hCB1 (P21554 whole entry): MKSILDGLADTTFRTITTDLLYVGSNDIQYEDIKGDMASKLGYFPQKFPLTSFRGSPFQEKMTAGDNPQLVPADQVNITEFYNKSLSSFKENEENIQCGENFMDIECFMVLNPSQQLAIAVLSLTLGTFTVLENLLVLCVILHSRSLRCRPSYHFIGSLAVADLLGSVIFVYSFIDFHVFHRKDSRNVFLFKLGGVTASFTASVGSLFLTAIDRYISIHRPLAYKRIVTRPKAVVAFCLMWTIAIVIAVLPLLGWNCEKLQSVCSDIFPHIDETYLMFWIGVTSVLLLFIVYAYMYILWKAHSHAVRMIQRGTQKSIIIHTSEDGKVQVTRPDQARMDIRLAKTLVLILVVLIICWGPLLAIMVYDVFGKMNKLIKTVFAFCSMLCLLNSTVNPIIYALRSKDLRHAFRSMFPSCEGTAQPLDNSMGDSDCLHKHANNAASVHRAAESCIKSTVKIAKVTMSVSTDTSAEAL
T1 sequence (P34972 whole entry): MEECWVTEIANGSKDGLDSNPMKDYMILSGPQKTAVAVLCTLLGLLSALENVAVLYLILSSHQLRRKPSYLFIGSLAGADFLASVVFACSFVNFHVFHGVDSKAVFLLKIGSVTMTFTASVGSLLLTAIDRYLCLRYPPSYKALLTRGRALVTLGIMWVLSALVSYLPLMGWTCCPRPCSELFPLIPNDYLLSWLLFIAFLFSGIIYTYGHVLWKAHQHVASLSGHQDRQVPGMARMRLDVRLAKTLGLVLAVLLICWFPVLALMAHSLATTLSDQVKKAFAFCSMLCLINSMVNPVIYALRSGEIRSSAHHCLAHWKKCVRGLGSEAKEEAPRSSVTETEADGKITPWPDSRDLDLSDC

Ki (hCB2 [1]; [3]): > 3 µM
Ki (hCB1; [4]): > 3 µM
Structure (SMILES): CCCCCn1cc2c(=O)[nH]nc-2c2ccccc21 [Compound 8, 5-Pentyl-2H-pyrazolo[4,3-c]quinolin-3(5H)-one]

Structure (SMILES): CCCCCn1cc2c(=O)n(C3CCCCC3)nc-2c2ccccc21 [Compound 16, 2-Cyclohexyl-5-pentyl-2H-pyrazolo[4,3-c]quinolin-3 (5H)-one]
Ki (hCB2 [1]; [3]): 0.0188 ± 0.0033 µM
Ki (hCB1): > 3 µM
EC50 (hCB2 [2]): 0.204 ± 0.041 µM
Emax (hCB2 [2]): 160 ± 3%

Structure (SMILES): CCCCCn1cc2c(=O)n(Cc3ccccc3)nc-2c2ccccc21 [Compound 19, 2-Benzyl-5-pentyl-2H-pyrazolo[4,3-c]quinolin-3(5H)-one]
Ki (hCB2 [1]): > 3 µM
Ki (hCB1): > 3 µM

Structure (SMILES): CCCCCn1nc2c3ccccc3n(CCCCC)cc-2c1=O [Compound 21, 2,5-Dipentyl-2H-pyrazolo[4,3-c]quinolin-3(5H)-one]
Ki (hCB2 [1]; [3]): 0.0043 ± 0.0003 µM
Ki (hCB1): > 3 µM

Structure (SMILES): CCCCCCn1nc2c3ccccc3n(CCCCC)cc-2c1=O [Compound 22, 2-Hexyl-5-pentyl-2H-pyrazolo[4,3-c]quinolin-3(5H)-one]
Ki (hCB2 [1]; [3]): 0.0077 ± 0.0003 µM
Ki (hCB1): > 3 µM

Structure (SMILES): CCCCCn1cc2c(=O)n(CC3CC3)nc-2c2ccccc21 [Compound 23, 2-(Cyclopropylmethyl)-5-pentyl-2H-pyrazolo[4,3-c]quinolin-3(5H)-one]
Ki (hCB2 [1]; [3]): 0.0104 ± 0.0031 µM
Ki (hCB1; [4]): > 3 µM

Structure (SMILES): CCCCCn1cc2c(=O)n(CC3CCCCC3)nc-2c2ccccc21 [Compound 24, 2-(Cyclohexylmethyl)-5-pentyl-2H-pyrazolo[4,3-c]quinolin-3(5H)-one]
Ki (hCB2 [1]; [3]): 0.00062 ± 3e-05 µM
Ki (hCB1): > 3 µM
EC50 (hCB2 [2]): 0.0143 ± 0.004 µM
Emax (hCB2 [2]): 149 ± 4%

Structure (SMILES): CCCCCn1cc2c(=O)n(CCC3CCCCC3)nc-2c2ccccc21 [Compound 25, 2-(2-Cyclohexylethyl)-5-pentyl-2H-pyrazolo[4,3-c]quinolin-3(5H)-one]
Ki (hCB2 [1]; [3]): 0.008 ± 0.0004 µM
Ki (hCB1): > 3 µM
EC50 (hCB2 [2]): 0.0054 ± 0.0011 µM
Emax (hCB2 [2]): 141 ± 3%

Structure (SMILES): CCCCCn1cc2c(=O)n(CC34CC5CC(CC(C5)C3)C4)nc-2c2ccccc21 [Compound 26, 2-(1-Adamantylmethyl)-5-pentyl-2H-pyrazolo[4,3-c]quinolin-3(5H)-one]
Ki (hCB2 [1]; [3]): 0.00039 ± 3e-05 µM
EC50 (hCB2 [2]): 0.064 ± 0.01 µM
Emax (hCB2 [2]): 163 ± 4%
Overall efficacy against colitis (colitis caused by TNBS; oral administration): effective in mice against colitis in a dose-dependent manner
Loss of body weight (colitis caused by TNBS; oral daily treatment 0.1, 1 and 10 mg/kg, five days after TNBS): attenuates in a dose-dependent manner the loss of weight
Macroscopic score (colitis caused by TNBS; oral, 10 mg/kg, scale 0 to 10, printed as 1.7 versus 1.9): 1.7
Mortality / survival rate (colitis caused by TNBS; oral, 0.1, 1 and 10 mg/kg daily, versus untreated mice (FIG. 1A)): reduction in mortality
Macroscopic score (colitis caused by TNBS; oral, 0.1, 1 and 10 mg/kg, colon after euthanasia (FIG. 2A)): reduces the macroscopic scores (FIG. 2A) in a dose-dependent manner
Attenuation of histological scores (colitis caused by TNBS; oral, histological score scale 0 to 6 (FIG. 2B)): 65%

Structure (SMILES): CCCCCn1cc2c(=O)n(CCC34CC5CC(CC(C5)C3)C4)nc-2c2ccccc21 [Compound 27, 2-(1-Adamantylethyl)-5-pentyl-2H-pyrazolo[4,3-c]quinolin-3 (5H)-one]
Ki (hCB2 [1]; [3]): 0.0261 ± 0.0038 µM

Structure (SMILES): CCCCn1cc2c(=O)n(CC3CCCCC3)nc-2c2ccccc21 [Compound 40, 2-(Cyclohexylmethyl)-5-butyl-2H-pyrazolo[4,3-c]quinolin-3(5H)-one]
Ki (hCB2 [1]): 0.0148 µM
Ki (hCB1; [5]): > 10 µM
melting point: 216 °C

Structure (SMILES): CCCCCCn1cc2c(=O)n(CC3CCCCC3)nc-2c2ccccc21 [Compound 41, 2-(Cyclohexylmethyl)-5-hexyl-2H-pyrazolo[4,3-c]quinolin-3(5H)-one]
Ki (hCB2 [1]): 0.0311 µM
Ki (hCB1; [5]): > 10 µM
melting point: 193 °C

Structure (SMILES): O=c1c2cn(CC3CCOCC3)c3ccccc3c-2nn1CC1CCCCC1 [Compound 42, 2-(Cyclohexylmethyl)-5-(tetrahydro-2H-4-pyranylmethyl)-pyrazolo[4,3-c]quinolin-3(5H)-one]
Ki (hCB2 [1]): 0.00532 µM
Ki (hCB1): 0.52 µM
melting point: > 250 °C

Structure (SMILES): O=c1c2cn(CCCC(F)(F)F)c3ccccc3c-2nn1CC1CCCCC1 [Compound 43, 2-(Cyclohexylmethyl)-5-(4,4,4-trifluorobutyl)-2H-pyrazolo[4,3-c]quinolin-3(5H)-one]
Ki (hCB2 [1]): 0.00617 µM
Ki (hCB1; [5]): 1.68 µM
melting point: 224 °C
